Columns and labels:
[1] = target: T1, THRβ (Homo sapiens, UniProt P10828); experiment: THRβ binding assay (time-resolved FRET coactivator peptide recruitment); type: biochemical; details: THRβ-LBD/RXRα, SRC2-2 coactivator peptide recruitment, 4 hours at room temperature
T1 construct: RXRα and THRβ-LBD Eu-anti-GST antibody with GST tag
Description: Experimental methods: In vitro analysis of the agonistic effect of compounds on THRβ was performed using time-resolved fluorescence resonance energy transfer coactivator peptide recruitment assays. The assay used biotin-SRC2-2 coactivator peptide, streptavidin-d2, RXRα and THRβ-LBD Eu-anti-GST antibody with GST tag. Eu-anti-GST antibody indirectly labeled THRβ-LBD by binding to the GST tag. Streptavidin-d2 indirectly labeled the SRC2-2 coactivator peptide by binding to the biotin tag. In the presence of RXRα, THRβ-LBD can form heterodimer THRβ-LBD/RXRα with it. […] According to the effect of different concentrations of the compound on the activity of THRβ, the agonistic ability of the compound can be evaluated.
The detailed procedure is as follows: • a. 100× reference compound or compound was prepared with DMSO, and equally diluted by 1:3. • b. 100× gradiently diluted reference compound or compound was diluted with 1× reaction buffer to 4×, which was then added to an assay plate. • c. A mixed solution of 4× THRβ-LBD and 4× RXRα was prepared with 1× reaction buffer, and added to the assay plate. • d. A mixed solution of 2× biotin-SRC2-2, 2× Eu-anti-GST, and 2× streptavidin-d2 was prepared with 1× reaction buffer, and added to the assay plate. • e. The assay plate was centrifuged at 1000 rpm for 1 min, and incubated at room temperature in the dark for 4 hours. • f.

[2] = target: T2, THRα (Homo sapiens, UniProt P10827); experiment: THRα binding assay (as the THRβ assay, THRβ replaced with THRα); type: biochemical; details: for EC50: THRα in place of THRβ; for THRα/β selectivity (fold): ratio of THRα EC50 to THRβ EC50
T2 construct: GST
T2 sequence (P10827 1-410 isoform P10827-2, other chains not shown): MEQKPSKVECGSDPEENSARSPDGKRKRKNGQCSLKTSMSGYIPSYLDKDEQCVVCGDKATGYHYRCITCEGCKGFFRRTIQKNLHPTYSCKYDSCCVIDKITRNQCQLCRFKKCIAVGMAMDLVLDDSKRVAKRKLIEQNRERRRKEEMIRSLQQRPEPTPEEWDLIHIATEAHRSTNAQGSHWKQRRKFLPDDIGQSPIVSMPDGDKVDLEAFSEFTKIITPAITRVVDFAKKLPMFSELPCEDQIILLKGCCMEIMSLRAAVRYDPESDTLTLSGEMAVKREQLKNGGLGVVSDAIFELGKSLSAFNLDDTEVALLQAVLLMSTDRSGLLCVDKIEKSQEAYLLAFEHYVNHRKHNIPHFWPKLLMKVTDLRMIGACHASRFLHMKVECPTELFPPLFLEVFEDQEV
T2 sequence (P19793 whole entry partner, other chains not shown): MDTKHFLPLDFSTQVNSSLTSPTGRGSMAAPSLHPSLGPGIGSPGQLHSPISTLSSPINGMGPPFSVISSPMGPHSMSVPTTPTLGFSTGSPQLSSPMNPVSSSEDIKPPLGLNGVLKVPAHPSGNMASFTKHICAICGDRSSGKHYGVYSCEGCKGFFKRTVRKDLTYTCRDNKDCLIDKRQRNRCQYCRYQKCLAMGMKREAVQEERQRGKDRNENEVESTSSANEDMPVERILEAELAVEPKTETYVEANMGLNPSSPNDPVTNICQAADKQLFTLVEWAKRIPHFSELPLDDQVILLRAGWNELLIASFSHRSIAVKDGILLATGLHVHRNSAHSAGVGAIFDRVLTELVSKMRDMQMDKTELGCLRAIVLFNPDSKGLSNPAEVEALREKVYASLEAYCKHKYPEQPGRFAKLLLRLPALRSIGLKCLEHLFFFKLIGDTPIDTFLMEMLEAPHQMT

T1 sequence (P10828 217-461 limits assumed, other chains not shown): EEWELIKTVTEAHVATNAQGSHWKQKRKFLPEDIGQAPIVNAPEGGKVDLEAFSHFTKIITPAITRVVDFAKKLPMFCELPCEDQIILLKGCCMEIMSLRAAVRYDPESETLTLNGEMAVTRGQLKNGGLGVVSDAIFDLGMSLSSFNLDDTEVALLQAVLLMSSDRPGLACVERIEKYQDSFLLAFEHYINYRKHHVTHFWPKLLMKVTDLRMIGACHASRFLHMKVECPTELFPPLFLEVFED
T1 sequence (P19793 whole entry partner, other chains not shown, the tested form may be a part): as the sequence (P19793 whole entry partner, other chains not shown) above

Row | Compound | EC50 [1] [nM] | EC50 [2] [nM] | THRα/β selectivity (fold) [2] [fold]
1 | CC(C)n1cc(Oc2c(Cl)cc(-n3nc(CF)c(=O)[nH]c3=O)cc2Cl)ccc1=O [Example 44, 2-(3,5-Dichloro-4-((1-isopropyl-6-oxo-1,6-dihydropyridin-3-yl)oxy)phenyl)-6-(fluoromethyl)-1,2,4-triazine-3,5(2H, 4H)-dione] | 3 | – | –
2 | COCCn1cc(Oc2c(Cl)cc(-n3nc(CF)c(=O)[nH]c3=O)cc2Cl)ccc1=O [Example 45, 2-(3,5-Dichloro-4-((1-(2-methoxyethyl)-6-oxo-1,6-dihydropyridin-3-yl)oxy)phenyl)-6-(fluoromethyl)-1,2,4-triazine-3,5(2H, 4H)-dione] | 32 | – | –
3 | N#Cc1nn(-c2cc(Cl)c(Oc3ccc(=O)n(-c4cc(F)cc(F)c4)c3)c(Cl)c2)c(=O)[nH]c1=O [Example 29, 2-(3,5-Dichloro-4-((1-(3,5-difluorophenyl)-6-oxo-1,6-dihydropyridin-3-yl)oxy)phenyl) -3,5-dioxo-2,3,4,5-tetrahydro-1,2,4-triazine-6-carbonitrile] | 297 | – | –
4 | CC(C)n1cc(Oc2c(Cl)cc(-n3nc(C#N)c(=O)[nH]c3=O)cc2Cl)cc(C2CC2)c1=O [Example 19, 2-(3,5-Dichloro-4-((5-cyclopropyl-1-isopropyl-6-oxo-1,6-dihydropyridin-3-yl)oxy)phenyl)-3,5-dioxo-2,3,4,5-tetrahydro-1,2,4-triazine-6-carbonitrile] | 1340 | – | –
5 | O=c1[nH]c(=O)n(-c2cc(Cl)c(Oc3ccc(=O)n(-c4cccc(OC(F)(F)F)c4)c3)c(Cl)c2)nc1CF [Example 40, 2-(3,5-Dichloro-4-((6-oxo-1-(3-(trifluoromethoxy)phenyl)-1,6-dihydropyridin-3-yl)oxy)phenyl)-6-(fluoromethyl)-1,2,4-triazine-3,5(2H, 4H)-dione] | 4 | 95 | 23.7
6 | Cc1cc(C)cc(-n2cc(Oc3c(Cl)cc(-n4nc(C#N)c(=O)[nH]c4=O)cc3Cl)ccc2=O)c1 [Example 30, 2-(3,5-dichloro-4-((1-(3,5-dimethylphenyl)-6-oxo-1,6-dihydropyridin-3-yl)oxy)phenyl)-3,5-dioxo-2,3,4,5-tetrahydro-1,2,4-triazine-6-carbonitrile] | 150 | – | –
7 | Cc1cc(Oc2c(Cl)cc(-n3nc(C#N)c(=O)[nH]c3=O)cc2Cl)cn(C2CC2)c1=O [Example 18, 2-(3,5-Dichloro-4-((1-cyclopropyl-5-methyl-6-oxo-1,6-dihydropyridin-3-yl)oxy)phenyl) -3,5-dioxo-2,3,4,5-tetrahydro-1,2,4-triazine-6-carbonitrile] | 1430 | – | –
8 | N#Cc1nn(-c2cc(Cl)c(Oc3ccc(=O)[nH]c3)c(Cl)c2)c(=O)[nH]c1=O [Example 2, 2-(3,5-Dichloro-4-((6-oxo-1,6-dihydropyridin-3-yl)oxy)phenyl)-3,5-dioxo-2,3,4,5-tetra hydro-1H-1,2,4-triazine-6-carbonitrile] | 3650 | – | –
9 | N#Cc1nn(-c2cc(Cl)c(Oc3ccc(=O)n(-c4nccs4)c3)c(Cl)c2)c(=O)[nH]c1=O [Example 34, 2-(3,5-dichloro-4-((6-oxo-1-(thiazol-2-yl)-1,6-dihydropyridin-3-yl)oxy)phenyl)-3,5-dioxo-2,3,4,5-tetrahydro-1,2,4-triazine-6-carbonitrile] | 435 | – | –
10 | COCCn1cc(Oc2c(Cl)cc(-n3nc(C#N)c(=O)[nH]c3=O)cc2Cl)ccc1=O [Example 8, 2-(3,5-Dichloro-4-((1-(2-methoxyethyl)-6-oxo-1,6-dihydropyridin-3-yl)oxy)phenyl) -3,5-dioxo-2,3,4,5-tetrahydro-1,2,4-triazine-6-carbonitrile] | 431 | – | –

Continued by falling EC50 [1], values first:

Row | EC50 [1] [nM] | EC50 [2] [nM] | THRα/β selectivity (fold) [2] [fold] | Compound
11 | 136 | – | – | Cc1ccccc1-n1cc(Oc2c(Cl)cc(-n3nc(C#N)c(=O)[nH]c3=O)cc2Cl)ccc1=O [Example 27, 2-(3,5-Dichloro-4-((6-oxo-1-(o-methylphenyl)-1,6-dihydropyridin-3-yl)oxy)phenyl)-3,5-dioxo-1,2,3,4-4,5-tetrahydro-1,2,4-triazine-6-carbonitrile]
12 | 119 | – | – | N#Cc1nn(-c2cc(Cl)c(Oc3ccc(=O)n(-c4cccs4)c3)c(Cl)c2)c(=O)[nH]c1=O [Example 33, 2-(3,5-Dichloro-4-((6-oxo-1-(thien-2-yl)-1,6-dihydropyridin-3-yl)oxy)phenyl)-3,5-diox o-2,3,4,5-tetrahydro-1,2,4-triazine-6-carbonitrile]
13 | 117 | 7630 | 53.7 | Cc1ccc(-n2cc(Oc3c(Cl)cc(-n4nc(CF)c(=O)[nH]c4=O)cc3Cl)ccc2=O)cc1 [Example 41, 2-(3,5-dichloro-4-((6-oxo-1-(p-tolyl)-1,6-dihydropyridin-3-yl)oxy)phenyl)-6-(fluoromethyl)-1,2,4-triazine-3,5(2H, 4H)-dione]
14 | 100 | – | – | N#Cc1nn(-c2cc(Cl)c(Oc3ccc(=O)n(-c4ccsc4)c3)c(Cl)c2)c(=O)[nH]c1=O [Example 32, 2-(3,5-Dichloro-4-((6-oxo-1-(thiophen-3-yl)-1,6-dihydropyridin-3-yl)oxy)phenyl)-3,5-dioxo-2,3,4,5-tetrahydro-1,2,4-triazine-6-carbonitrile]
15 | 92 | 9260 | 100.6 | O=c1[nH]c(=O)n(-c2cc(Cl)c(Oc3ccc(=O)n(-c4ccc(F)cc4)c3)c(Cl)c2)nc1CF [Example 37, 2-(3,5-dichloro-4-((1-(4-fluorophenyl)-6-oxo-1,6-dihydropyridin-3-yl)oxy)phenyl)-6-(fluoromethyl)-1,2,4-triazine-3,5(2H, 4H)-dione]
16 | 81 | – | – | N#Cc1nn(-c2cc(Cl)c(Oc3ccc(=O)n(-c4cccc(C5CC5)c4)c3)c(Cl)c2)c(=O)[nH]c1=O [Example 31, 2-(3,5-dichloro-4-((1-(3-cyclopropylphenyl)-6-oxo-1,6-dihydropyridin-3-yl)oxy)phenyl)-3,5-dioxo-2,3,4,5-tetrahydro-1,2,4-triazine-6-carbonitrile]
17 | 60 | – | – | Cc1cccc(-n2cc(Oc3c(Cl)cc(-n4nc(C#N)c(=O)[nH]c4=O)cc3Cl)ccc2=O)c1 [Example 26, 2-(3,5-Dichloro-4-((6-oxo-1-(3-methylphenyl)-1,6-dihydropyridin-3-yl)oxy)phenyl)-3,5-dioxo-2,3,4,5-tetrahydro-1,2,4-triazine-6-carbonitrile]
18 | 40 | – | – | CCC(CC)n1cc(Oc2c(Cl)cc(-n3nc(C#N)c(=O)[nH]c3=O)cc2Cl)ccc1=O [Example 7, 2-(3,5-dichloro-4-((6-oxo-1-(pentan-3-yl)-1,6-dihydropyridin-3-yl)oxy)phenyl)-3,5-dioxo-2,3,4,5-tetrahydro-1,2,4-triazine-6-carbonitrile]
19 | 26 | 2690 | 103.3 | N#Cc1nn(-c2cc(Cl)c(Oc3ccc(=O)n(-c4cccc(C(F)(F)F)c4)c3)c(Cl)c2)c(=O)[nH]c1=O [Example 23, 2-(3,5-dichloro-4-((6-oxo-1-(3-(trifluoromethyl)phenyl)-1,6-dihydropyridin-3-yl)oxy)phenyl)-3,5-dioxo-2,3,4,5-tetrahydro-1,2,4-triazine-6-carbonitrile]
20 | 23 | 1140 | 49.5 | N#Cc1cccc(-n2cc(Oc3c(Cl)cc(-n4nc(C#N)c(=O)[nH]c4=O)cc3Cl)ccc2=O)c1 [Example 28, 2-(3,5-Dichloro-4-((1-(3-cyanophenyl)-6-oxo-1,6-dihydropyridin-3-yl)oxy)phenyl)-3,5- -dioxo-1,2,3,4-4,5-tetrahydro-1,2,4-triazine-6-carbonitrile]
21 | 22 | – | – | N#Cc1nn(-c2cc(Cl)c(Oc3ccc(=O)n(C4=CCCCC4)c3)c(Cl)c2)c(=O)[nH]c1=O [Example 13, 2-(3,5-Dichloro-4-((1-(cyclohex-1-en-1-yl)-6-oxo-1,6-dihydropyridin-3-yl)oxy)phenyl) -3,5-dioxo-2,3,4,5-tetrahydro-1,2,4-triazine-6-carbonitrile]
22 | 8 | – | – | O=c1[nH]c(=O)n(-c2cc(Cl)c(Oc3ccc(=O)n(-c4cccs4)c3)c(Cl)c2)nc1CF [Example 43, 2-(3,5-Dichloro-4-((6-oxo-1-(thiophen-2-yl)-1,6-dihydropyridin-3-yl)oxy)phenyl)-6-(fluoromethyl)-1,2,4-triazine-3,5(2H, 4H)-dione]
23 | 5 | 117 | 23.3 | O=c1[nH]c(=O)n(-c2cc(Cl)c(Oc3ccc(=O)n(-c4cccc(C(F)(F)F)c4)c3)c(Cl)c2)nc1CF [Example 39, 2-(3,5-Dichloro-4-((6-oxo-1-(3-(trifluoromethyl)phenyl)-1,6-dihydropyridin-3-yl)oxy)phenyl)-6-(fluoromethyl)-1,2,4-triazine-3,5(2H, 4H)-dione]
24 | 3 | 85 | 28.3 | O=c1[nH]c(=O)n(-c2cc(Cl)c(Oc3ccc(=O)n(-c4cccc(F)c4)c3)c(Cl)c2)nc1CF [Example 38, 2-(3,5-dichloro-4-((1-(3-fluorophenyl)-6-oxo-1,6-dihydropyridin-3-yl)oxy)phenyl)-6-(fluoromethyl)-1,2,4-triazine-3,5(2H, 4H)-dione]

— patent publication US20240109863A1, “2-PYRIDONE DERIVATIVE, AND PREPARATION METHOD THEREFOR AND PHARMACEUTICAL APPLICATION THEREOF” (KPC PHARMACEUTICALS, INC, priority 2020, published 2024)
